# Reference: patent US20030013770A1, “Aminobenzophenones as inhibitors of il 1b and tnf” (priority 2001, published 2003)
# What was measured:
# Format in all cases: cell-based
# PMN-superoxide = test: Inhibition of PMN (polymorphonuclear) superoxide secretion; settings: human PMN granulocytes primed with TNF-α, stimulated with fMLP; reduction of ferricytochrome C; read-out: The median inhibition concentration (IC50, nM) of PMN-superoxide
# Description: The compounds of the present invention also show similar activities in the ability to inhibit PMN (polymorphonuclear) superoxide secretion which is also indicative of potentially useful anti-inflammatory drugs. The compounds were tested using the following procedure:
# Human polymorphonuclear (PMN) granulocytes were isolated from human blood by dextran sedimentation, Lymphoprep® fractionation and hypotonic lysis of contaminating erythrocytes. Superoxide anion generation was measured as the superoxide dismutase inhibitable reduction of ferricytochrome C (Madhu, S. B. et al, Inflammation, 16, 241, (1992)). The cells were suspended in Hanks' balanced salt solution, and incubated for 10 minutes at 37° C. with test compounds. The cells were primed by the addition of TNF-α (3 ng/ml final concentration) for 10 minutes, and then ferricytochrome C, (final concentration 750 μg/ml), bovine serum albumin (BSA, final concentration 1 mg/ml) and formyl-methionyl-leucyl-phenylalanine (fMLP, final concentration 10^−7 M) were added for 3 minutes. The cells were chilled on ice, and were spun down. The optical densities in the cell-free supernatant was measured in a spectrophotometer. The median inhibitory concentration (IC50) of the compounds was calculated.
# TNF-α = test: Inhibition of TNF-α secretion in LPS stimulated peripheral blood mononuclear cells; settings: PBMC; LPS stimulated human peripheral blood mononuclear cells; 18 hours; ELISA of medium; read-out: The median inhibition concentration (IC50, nM) of TNF-α
# Description: (§1) To study the effect of the compound of the present invention in vitro the inhibition of the IL-1β and TNF-α secretion was measured using the following procedure:
# (§2) Cytokine production was measured in the media from lipopolysaccharide (LPS) stimulated peripheral blood mononuclear cells. The mononuclear cells were isolated from human peripheral blood by Lymphoprep® (Nycomed, Norway) fractionation and suspended in RPMI 1640 (growth medium) with foetal calf serum (FCS, 2%), at a concentration of 5×10^5 cells/ml. The cells were incubated in 24-well tissue culture plates in 1 ml aliquots. Test compounds were dissolved in dimethylsulfoxide (DMSO, 10 mM) and were diluted with the medium. Compounds were added to the cells for 30 minutes, then LPS ([…] final concentration) was added. The plates were incubated for 18 hours, and the concentration of IL-1β and TNF-α in the medium was determined by enzyme-linked immunosorbent assays. The median inhibitory concentrations (IC50) of the compounds were calculated.
# IL-1β = test: Inhibition of IL-1β secretion in LPS stimulated peripheral blood mononuclear cells; settings: PBMC; LPS stimulated human peripheral blood mononuclear cells; 18 hours; ELISA of medium; read-out: The median inhibition concentration (IC50, nM) of IL-1β
# Description: as §1, §2
Structure (SMILES),IC50 (PMN-superoxide) [nM],IC50 (TNF-α) [nM],IC50 (IL-1β) [nM]
"Cc1cc(Br)ccc1Nc1ccc(C(=O)c2ccccc2C)c(Cl)c1 [Compound 136, 4-(4-Bromo-2-methyl-phenylamino)-2-chloro-2′-methylbenzophenone]",100,8,100
"Cc1ccccc1C(=O)c1ccc(Nc2ccc(Cl)cc2)cc1Cl [Compound 119, 2-Chloro-4-(4-chloro-phenylamino)-2′-methylbenzophenone]",5,16,40
"Cc1ccccc1C(=O)c1ccc(Nc2ccccc2N)cc1Cl [ref. A), 4-(2-Aminophenylamino)-2-chloro-2′-methylbenzophenone, reference compound]",5,7.1,13
"Cc1cc(F)ccc1Nc1ccc(C(=O)c2ccccc2C)c(Cl)c1 [Compound 116, 2-Chloro-4-(4-fluoro-2-methyl-phenylamino)-2′-methylbenzophenone]",3.7,7.9,32
"Cc1ccccc1C(=O)c1ccc(Nc2cccc(F)c2C)cc1Cl [Compound 131, 2-Chloro-4-(3-fluoro-2-methyl-phenylamino)-2′-methylbenzophenone]",13,4,13
"Cc1ccccc1C(=O)c1ccc(Nc2ccccc2F)cc1Cl [Compound 105, 2-Chloro-4-(2-fluoro-phenylamino)-2′-methylbenzophenone]",13,4,25
"Cc1ccc(F)cc1Nc1ccc(C(=O)c2ccccc2C)c(Cl)c1 [Compound 130, 2-Chloro-4-(5-fluoro-2-methyl-phenylamino)-2′-methylbenzophenone]",50,6.3,40
"Cc1ccccc1Nc1ccc(C(=O)c2ccccc2C)c(Cl)c1 [Compound 102, 2-Chloro-2′-methyl-4-(2-methyl-phenylamino)benzophenone]",6.3,4,13
"Cc1ccccc1C(=O)c1ccc(Nc2cccc(Cl)c2)cc1Cl [Compound 109, 2-Chloro-4-(3-chloro-phenylamino)-2′-methylbenzophenone]",20,7.9,50
